Experimental data: patent US9562044B2, “2-acylaminothiazole derivative or salt thereof” (ASTELLAS PHARMA INC., priority 2013, dated 2017)
Where a name gives a salt, the structure may show the parent alone.

Key:
[1] = target: T1, human c-Mpl receptor (Homo sapiens, UniProt P40238); assay: Human c-Mpl-introduced Ba/F3 cell proliferative activity; type: cell-based; conditions: concentration showing 30% proliferation; 100% = positive control at 1 μM
T1 construct: expressed in transfected cells
T1 sequence (P40238 26-635): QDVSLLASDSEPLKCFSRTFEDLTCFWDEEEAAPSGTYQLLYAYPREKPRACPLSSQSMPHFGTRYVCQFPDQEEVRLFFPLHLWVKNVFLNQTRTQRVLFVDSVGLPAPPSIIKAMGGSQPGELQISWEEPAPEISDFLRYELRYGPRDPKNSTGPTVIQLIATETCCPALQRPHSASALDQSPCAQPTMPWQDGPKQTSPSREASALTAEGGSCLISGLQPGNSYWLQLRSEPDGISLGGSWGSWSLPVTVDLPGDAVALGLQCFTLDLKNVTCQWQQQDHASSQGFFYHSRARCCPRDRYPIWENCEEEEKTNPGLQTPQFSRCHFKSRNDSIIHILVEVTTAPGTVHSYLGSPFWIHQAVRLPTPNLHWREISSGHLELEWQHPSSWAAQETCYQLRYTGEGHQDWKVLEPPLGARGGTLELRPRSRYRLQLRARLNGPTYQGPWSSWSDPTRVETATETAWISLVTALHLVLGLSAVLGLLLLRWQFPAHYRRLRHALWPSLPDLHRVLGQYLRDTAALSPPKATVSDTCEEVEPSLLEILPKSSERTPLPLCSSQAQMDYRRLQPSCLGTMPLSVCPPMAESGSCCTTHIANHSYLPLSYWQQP
Description: Evaluation of Human c-Mpl-Introduced Ba/F3 Cell Proliferative Activity
The human c-Mpl-introduced Ba/F3 cell proliferative activity was measured by the following method.
As a positive control, 1-(5-{[4-(4-chloro-2-thienyl)-5-{[(2R)-2-methylpyrrolidin-1-yl]methyl}-1,3-thiazol-2-yl]carbamoyl}-3-fluoropyridin-2-yl)piperidine-4-carboxylic acid hydrochloride, which is disclosed as Example 315 in Patent Document 1 and represented by the formula A1, was used. It is known that the compound has a good human c-Mpl-introduced Ba/F3 cell proliferative activity as disclosed in Table 1 of Patent Document 1.
a) Construction of Human c-Mpl Receptor Expression Vector
A human c-mpl receptor gene (GenBank Accession No. M90102.1) was introduced into an expression vector pEF-BOS (Nucleic Acids Res. 18, 5322, 1990).
b) Construction of Cell Stably Expressing Human c-Mpl Receptor
A human c-Mpl receptor expression vector was introduced into a Ba/F3 cell (RIKEN BRC: RCB0805). For the introduction, an electroporation method was used. pEF-BOS-c-mpl (10 μg), pSV2bsr (1 μg, Kaken Pharmaceutical Co., Ltd.) and 1×10^7 Ba/F3 cells were put into a cuvette having a gap width of 0.4 cm, and electroporated under the conditions of 1.5 kV (25 μF) by a Gene Pulser (registered trademark) (BioRad). The cells were cultured in an RPMI-1640 culture medium containing 0.5% WEHI conditioned media (BD Biosciences) and 10% fetal bovine serum for 3 days, and then cultured in an RPMI-1640 culture medium, to which 10 μg/mL blasticidin had been further added, for 30 days to acquire a drug-resistant clone.
c) Measurement of Cell Proliferative Activity
The cells obtained in b) above was cultured in an RPMI-1640 culture medium containing 0.5% WEHI conditioned media, 10% fetal bovine serum, and used. On the day before the experiment, test substances (final concentration of 100 nM to 10 μM) which had been dissolved in a culture medium for assay (RPMI-1640 culture medium containing 10% fetal bovine serum) were added to a 384-well plate (Lot No. 781185, Greiner Bio-One). The cells in the culture medium that had been replaced with a culture medium for assay were dispensed into a 384-well plate, to which the test substances had been added in advance, to 1×10^4 cells/well, and cultured at 37° C. and 5% CO2 overnight. On the experiment day, a solution of a Cell Counting Kit (Dojindo Laboratories) was added to each well of the 384-well plate and cultured at 37° C. and 5% CO2 for about 5 hours. Thereafter, the absorbance (absorption wavelength of 450 nm) of each well was measured using Safire^2™ (TECAN) and used as the index of the number of cells. Further, as a negative control, a well in which the test substance had been not added was prepared.
The absorbance of the well without the test substance was set to 0%, and the absorbance in the case where the positive control was added at a final concentration of 1 μM was set to 100%. From the absorbance in the case where the test substance had been added, a cell proliferation rate (%) was calculated. From the obtained results, the test substance concentration showing 30% proliferation was calculated as an EC30 value by a logistic regression method.

[2] = system: isolated rat bladder; assay: Transmural electrical field stimulation-induced contraction of isolated rat bladder; conditions: AUC of contractile response, value before treatment = 100%, SD female rat bladder strip, read-out: Enhancement rate of isolated bladder contraction (% of pre)
Description: Effects on Transmural Electrical Field Stimulation-Induced Contraction of Isolated Rat Bladder
As an effect on the nerve stimulation-dependent bladder contraction in vitro, the effect of the Example compound of the present invention in the transmural electrical field stimulation-induced contraction of isolated rat bladder was measured by the following method. That is, from the bladder isolated from a Spraque-Dawley (SD) female rat (Japan SLC, Inc.), a longitudinal bladder strip having a width of about 2 mm and a length of about 10 mm was prepared. The prepared bladder strip was suspended in an organ bath filled with 10 mL of a Krebs-Henseleit solution. The Krebs-Henseleit solution was bubbled with 95% O2 and 5% CO2, and kept at 37° C. After stabilization at an initial tension of 1 g, contraction was induced twice with 60 mM KCl. The strip was washed with the Krebs-Henseleit solution and stabilized, and then contraction was induced with transmural electrical field stimulation at 20 V (stimulation frequency of 8 Hz, pulse width of 0.3 msec, and stimulation time of 10 seconds) by an electrical stimulation device (Nihon Kohden Corporation). At an interval of 2 minutes, transmural electrical field stimulation was repeated and the voltage was adjusted to make the contractile amplitude about 50% of the contractile response by 20 V. After stabilization of the contraction by the transmural electrical field stimulation, 10 μL of the test substance (final concentrations of 3 μM, 10 μM, and 30 μM), which had been dissolved in 100% dimethylsulfoxide in advance was added. The test substance was cumulatively administered at the next concentration after the contractile response at a lower concentration had been stabilized. The responses were put into a personal computer through PowerLab (registered trademark) (AD Instruments), and analyzed with LabChart (registered trademark) (AD Instruments). The area under the response of each contractile response (area under curve, AUC) was calculated and the value before the treatment with the test substance was set to 100%. Based on this, the enhancement rate of the isolated bladder contraction (% of pre) after the treatment with the test substance was calculated.
The enhancement rates of the isolated bladder contraction due to several 10 μM Example compounds which are the compounds of the formula (I) are shown in Table 2.

SMILES	Test Example 2 EC30 [1]	activity at 10 µM [2]
CCCOc1ccc(-c2nc(NC(=O)c3cnc(N4CCC(C(=O)O)CC4)cn3)sc2CN2CCC[C@H]2CC)cc1C(F)(F)F [Example 1, 1-{5-[(5-{[(2R)-2-ethylpyrrolidin-1-yl]methyl}-4-[4-propoxy-3-(trifluoromethyl)phenyl]-1,3-thiazol-2-yl)carbamoyl]pyrazin-2-yl}piperidine-4-carboxylic acid dihydrochloride]	>10 µM	132%
CCCC1CCCN1Cc1sc(NC(=O)c2cnc(N3CCC(C(=O)O)CC3)cn2)nc1-c1ccc(OC(C)C)c(C(F)(F)F)c1 (stereo not drawn) [Example 19]	>10 µM	124%
CC(C)Oc1ccc(-c2nc(NC(=O)c3cnc(N4CCC(C(=O)O)CC4)cn3)sc2CN2CCCC(C)(C)C2)cc1C(F)(F)F [Example 20]	>10 µM	–
CC[C@@H]1CCCN1Cc1sc(NC(=O)c2cnc(N3CCC(C(=O)O)CC3)cn2)nc1-c1ccc(OCCCOC)c(C(F)(F)F)c1 [Example 21]	>10 µM	–
CCCOc1ccc(-c2nc(NC(=O)c3cnc(N4CCC(C(=O)O)CC4)cn3)sc2CN2CCCC(C)(C)C2)cc1C(F)(F)F [Example 27]	>10 µM	–
COCCN(Cc1sc(NC(=O)c2cnc(N3CCC(C(=O)O)CC3)cn2)nc1-c1cc(C(F)(F)F)cc(C(F)(F)F)c1)CC(C)C [Example 38]	>10 µM	–
CCOC[C@@H]1CCCN1Cc1sc(NC(=O)c2cnc(N3CCC(C(=O)O)CC3)cn2)nc1-c1cc(F)c(OC)c(Cl)c1 [Example 69]	>10 µM	152%
CCOC[C@@H]1CCCN1Cc1sc(NC(=O)c2cnc(N3CCC(C(=O)O)CC3)cn2)nc1-c1cc(F)c(OC)c(C(F)(F)F)c1 [Example 84]	>10 µM	140%
COc1c(Cl)cc(-c2nc(NC(=O)c3cnc(N4CCC(C(=O)O)CC4)cn3)sc2CN2CCC[C@H]2C)cc1Cl [Example 92]	>10 µM	132%
C[C@@H]1CCCCN1Cc1sc(NC(=O)c2cnc(N3CCC(C(=O)O)CC3)cn2)nc1-c1cc(Cl)cs1 [Example 142]	0.38 µM	–
CCCN(CCOC)Cc1sc(NC(=O)c2cnc(N3CCC(C(=O)O)CC3)cn2)nc1-c1cc(Cl)cs1 [Example 146]	0.82 µM	–
COCCN(Cc1sc(NC(=O)c2cnc(N3CCC(C(=O)O)CC3)cn2)nc1-c1cc(Cl)cs1)CC(C)C [Example 152]	0.58 µM	–
CCCC1CCCN1Cc1sc(NC(=O)c2cnc(N3CCC(C(=O)O)CC3)cn2)nc1-c1ccc(OC)c(C(F)(F)F)c1 (stereo not drawn) [Example 158]	>10 µM	125%
COc1ccc(-c2nc(NC(=O)c3cnc(N4CCC(C(=O)O)CC4)cn3)sc2CN2CCC[C@H]2C(F)(F)F)cc1C(F)(F)F [Example 179]	>10 µM	120%
CC[C@@H]1CCCN1Cc1sc(NC(=O)c2cnc(N3CCC(C(=O)O)CC3)cn2)nc1-c1cc(Cl)cs1 [Example 196]	–	125%
CCOc1ccc(-c2nc(NC(=O)c3cnc(N4CCC(C(=O)O)CC4)cn3)sc2CN2CCC[C@H]2CC)cc1C(F)(F)F [Example 203]	>10 µM	–
O=C(Nc1nc(-c2ccc(OCCCF)c(C(F)(F)F)c2)c(CN2CCC[C@H]2C(F)(F)F)s1)c1cnc(N2CCC(C(=O)O)CC2)cn1 [Example 204]	>10 µM	–

More lines, main results first:

Test Example 2 EC30 [1]	SMILES	activity at 10 µM [2]
>10 µM	COc1cc(-c2nc(NC(=O)c3cnc(N4CCC(C(=O)O)CC4)cn3)sc2CN2CCCC[C@H]2C)cc(C(F)(F)F)c1 [Example 2, 1-{5-[(4-[3-methoxy-5-(trifluoromethyl)phenyl]-5-{[(2R)-2-methylpiperidin-1-yl]methyl}-1,3-thiazol-2-yl)carbamoyl]pyrazin-2-yl}piperidine-4-carboxylic acid dihydrochloride]	–
4.8 µM	Cc1cc(OC(F)(F)F)cc(-c2nc(NC(=O)c3cnc(N4CCC(F)(C(=O)O)CC4)cn3)sc2CN2CCC[C@H]2C)c1 [Example 3, 4-fluoro-1-{5-[(5-{[(2R)-2-methylpyrrolidin-1-yl]methyl}-4-[3-methyl-5-(trifluoromethoxy)phenyl]-1,3-thiazol-2-yl)carbamoyl]pyrazin-2-yl}piperidine-4-carboxylic acid dihydrochloride]	–
>10 µM	C[C@@H]1CCCN1Cc1sc(NC(=O)c2cnc(N3CCC(C(=O)O)CC3)cn2)nc1-c1ccc(N(C)C)c(C(F)(F)F)c1 [Example 11]	–
>10 µM	CC[C@@H]1CCCN1Cc1sc(NC(=O)c2cnc(N3CCC(F)(C(=O)O)CC3)cn2)nc1-c1ccc(OC)c(C(F)(F)F)c1 [Example 125]	–
8.4 µM	C[C@@H]1CCCN1Cc1sc(NC(=O)c2cnc(N3CCC(F)(C(=O)O)CC3)cn2)nc1-c1cc(F)cc(C(F)(F)F)c1 [Example 128]	–
0.77 µM	C[C@@H]1CCCN1Cc1sc(NC(=O)c2cnc(N3CCC(O)(C(=O)O)CC3)cn2)nc1-c1cc(Cl)cs1 [Example 129]	–
1.1 µM	C[C@@H]1CCCN1Cc1sc(NC(=O)c2cnc(N3CCC(F)(C(=O)O)CC3)cn2)nc1-c1ccc(F)c(C(F)(F)F)c1 [Example 133]	–
>10 µM	C[C@@H]1CCCN1Cc1sc(NC(=O)c2cnc(N3CCC(C(=O)O)CC3)cn2)nc1-c1cc(F)cc(C(F)(F)F)c1 [Example 150]	–
>10 µM	CCOc1ccc(-c2nc(NC(=O)c3cnc(N4CCC(C(=O)O)CC4)cn3)sc2CN2CCC[C@H]2C)cc1C(F)(F)F [Example 200]	–
